21 compounds from patent publication US20260167623A1 (NIKANG THERAPEUTICS, INC., priority 2022, published 2026) can be followed below.

Molecules are shown by their SMILES.

The experiment concerns the target T1, CDK2 (Homo sapiens, UniProt P24941).
T1 construct: High-Throughput Measurement of Cellular Endogenous CDK2; endogenous in cells; host or cells: OVCAR3
Put plainly: Inhibition of CDK2: phospho-Rb (S807/811) HTRF measurement in OVCAR3 cells, 24 h. As to conditions: 24 h compound treatment, read-out: pRB_OVCAR3_24h. Type of experiment: cell-based. A digest of the protocol:
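OVCAR3 cells, seeded overnight, were exposed to compounds at 0.3 to 10,000 nM for 24 h, then lysed. Rb S807/811 phosphorylation read by HTRF (665/620 nm ratio) after 4 h detection at room temperature; data normalized to DMSO and IC50 from four-parameter logistic fit.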
Background: TR-FRET usually uses a lanthanide donor and a delayed reading to cut background.
As for `Cn1nc(N2CCC(=O)NC2=O)c2ccc(C3CCN(CC4CCN(c5ccc(F)c(S(=O)(=O)N6CCC(Nc7ncc(Cl)cn7)CC6)c5)CC4)CC3)cc21` [Example 189, 1-(6-(1-((1-(3-((4-((5-chloropyrimidin-2-yl)amino)piperidin-1-yl)sulfonyl)-4-fluorophenyl)piperidin-4-yl)methyl)piperidin-4-yl)-1-methyl-1H-indazol-3-yl)dihydropyrimidine-2,4(1H,3H)-dione], the IC50 was > 2500 nM.
For the compound `Cn1nc(N2CCC(=O)NC2=O)c2ccc(N3CCC(CN4CC5CCC(C4)N5c4cccc(S(=O)(=O)N5CCC(Nc6ncc(Cl)cn6)CC5)c4)CC3)cc21` [Example 191, 1-(6-(4-((8-(3-((4-((5-chloropyrimidin-2-yl)amino)piperidin-1-yl)sulfonyl)phenyl)-3,8-diazabicyclo[3.2.1]octan-3-yl)methyl)piperidin-1-yl)-1-methyl-1H-indazol-3-yl)dihydropyrimidine-2,4(1H,3H)-dione], the IC50 is > 2500 nM.
Take `Cn1nc(N2CCC(=O)NC2=O)c2ccc(C3CCN(CC4CCN(c5cccc(S(=O)(=O)N6CCC(Nc7ncc(F)cn7)CC6)c5)CC4)CC3)cc21` [Example 193, 1-(6-(1-((1-(3-((4-((5-fluoropyrimidin-2-yl)amino)piperidin-1-yl)sulfonyl)phenyl)piperidin-4-yl)methyl)piperidin-4-yl)-1-methyl-1H-indazol-3-yl)dihydropyrimidine-2,4(1H,3H)-dione]: the IC50 is 500 to 2500 nM.
With `O=C1CCN(c2cncc3c(C4CCN(CC5CCN(c6cccc(S(=O)(=O)N7CCC(Nc8ncc(Cl)cn8)CC7)c6)CC5)CC4)cccc23)C(=O)N1` [Example 194, 1-(8-(1-((1-(3-((4-((5-chloropyrimidin-2-yl)amino)piperidin-1-yl)sulfonyl)phenyl)piperidin-4-yl)methyl)piperidin-4-yl)isoquinolin-4-yl)dihydropyrimidine-2,4(1H,3H)-dione], the IC50 is 100 to 500 nM.
With `Cn1nc(N2CCC(=O)NC2=O)c2ccc(C3CCN(CC4CCN(c5cccc(S(=O)(=O)N6CCC(Nc7ncc(C(F)F)cn7)CC6)c5)CC4)CC3)cc21` [Example 195, 1-(6-(1-((1-(3-((4-((5-(difluoromethyl)pyrimidin-2-yl)amino)piperidin-1-yl)sulfonyl)phenyl)piperidin-4-yl)methyl)piperidin-4-yl)-1-methyl-1H-indazol-3-yl)dihydropyrimidine-2,4(1H,3H)-dione], the IC50 is 500 to 2500 nM.
The same measure for `Cn1c(=O)n(C2CCC(=O)NC2=O)c2cccc(C3CCN(Cc4cc(S(=O)(=O)N5CCC(Nc6ncc(OC(F)F)cn6)CC5)ccc4C#N)CC3)c21` (stereo not drawn) [Example 196, 4-((4-((5-(difluoromethoxy)pyrimidin-2-yl)amino)piperidin-1-yl)sulfonyl)-2-((4-(1-(2,6-dioxopiperidin-3-yl)-3-methyl-2-oxo-2,3-dihydro-1H-benzo[d]imidazol-4-yl)piperidin-1-yl)methyl)benzonitrile]: 100 to 500 nM; for `N#Cc1ccc(S(=O)(=O)N2CCC(Nc3ncc(Cl)cn3)CC2)cc1N1CCC(CN2CCN(c3ccc4c(c3)CN(C3CCC(=O)NC3=O)C4=O)CC2)CC1` (stereo not drawn) [Example 200, 4-((4-((5-chloropyrimidin-2-yl)amino)piperidin-1-yl)sulfonyl)-2-(4-((4-(2-(2,6-dioxopiperidin-3-yl)-1-oxoisoindolin-5-yl)piperazin-1-yl)methyl)piperidin-1-yl)benzonitrile]: 100 to 500 nM; for `CC1(C)C(=O)N(C2CCC(=O)NC2=O)c2cccc(C3CCN(CC4CCN(c5cc(S(=O)(=O)N6CCC(Nc7ncc(Cl)cn7)CC6)ccc5C#N)CC4)CC3)c21` (stereo not drawn) [Example 207, 4-((4-((5-chloropyrimidin-2-yl)amino)piperidin-1-yl)sulfonyl)-2-(4-((4-(1-(2,6-dioxopiperidin-3-yl)-3,3-dimethyl-2-oxoindolin-4-yl)piperidin-1-yl)methyl)piperidin-1-yl)benzonitrile]: 100 to 500 nM.
The same measure for `Cn1nc(-n2ccc(=O)[nH]c2=O)c2ccc(C3CCN(CC4CCN(c5cccc(S(=O)(=O)N6CCC(Nc7ncc(Cl)cn7)CC6)c5)CC4)CC3)cc21` [Example 210, 1-(6-(1-((1-(3-((4-((5-chloropyrimidin-2-yl)amino)piperidin-1-yl)sulfonyl)phenyl)piperidin-4-yl)methyl)piperidin-4-yl)-1-methyl-1H-indazol-3-yl)pyrimidine-2,4(1H,3H)-dione]: 100 to 500 nM.
The value for `Cn1nc(N2CCC(=O)NC2=O)c2ncc(C3CCN(CC4CCN(c5cccc(S(=O)(=O)N6CCC(Nc7ncc(C(F)(F)F)cn7)CC6)c5)CC4)CC3)cc21` [Example 212, 1-(1-methyl-6-(1-((1-(3-((4-((5-(trifluoromethyl)pyrimidin-2-yl)amino)piperidin-1-yl)sulfonyl)phenyl)piperidin-4-yl)methyl)piperidin-4-yl)-1H-pyrazolo[4,3-b]pyridin-3-yl)dihydropyrimidine-2,4(1H,3H)-dione] was 500 to 2500 nM; that for `O=C1CCN(c2cnc3c(C4CCN(CC5CCN(c6cccc(S(=O)(=O)N7CCC(Nc8ncc(Cl)cn8)CC7)c6)CC5)CC4)cccn23)C(=O)N1` [Example 213, 1-(8-(1-((1-(3-((4-((5-chloropyrimidin-2-yl)amino)piperidin-1-yl)sulfonyl)phenyl)piperidin-4-yl)methyl)piperidin-4-yl)imidazo[1,2-a]pyridin-3-yl)dihydropyrimidine-2,4(1H,3H)-dione] was 100 to 500 nM; that for `Cn1nc(N2CCC(=O)NC2=O)c2ncc(C3CCN(CC4CCN(c5cccc(S(=O)(=O)N6CCC(Nc7ncc(Cl)cn7)CC6)c5)CC4)CC3)cc21` [Example 215] was 500 to 2500 nM.
Consider `CO[C@@H]1CN(S(=O)(=O)c2cccc(N3CCC(CN4CCC(c5ccc6c(N7CCC(=O)NC7=O)nn(C)c6c5)CC4)CC3)c2)CC[C@@H]1Nc1ncc(Cl)cn1` [Example 218, 1-(6-(1-((1-(3-(((3R,4S)-4-((5-chloropyrimidin-2-yl)amino)-3-methoxypiperidin-1-yl)sulfonyl)phenyl)piperidin-4-yl)methyl)piperidin-4-yl)-1-methyl-1H-indazol-3-yl)dihydropyrimidine-2,4(1H,3H)-dione], for which the IC50 is > 2500 nM.
The value for `O=C1CCC(NC(=O)c2ccc(C3CCN(CC4CCN(c5cccc(S(=O)(=O)N6CCC(Nc7ncc(C(F)(F)F)cn7)CC6)c5)CC4)CC3)cn2)C(=O)N1` (stereo not drawn) [Example 225, N-(2,6-dioxopiperidin-3-yl)-5-(1-((1-(3-((4-((5-(trifluoromethyl)pyrimidin-2-yl)amino)piperidin-1-yl)sulfonyl)phenyl)piperidin-4-yl)methyl)piperidin-4-yl)picolinamide] was 100 to 500 nM.
The value for `Cn1nc(N2CCC(=O)NC2=O)c2ccc(C3CCN(CC4CCN(c5cccc(S(=O)(=O)N6[C@@H]7CC[C@H]6CC(Nc6ncc(Cl)cn6)C7)c5)CC4)CC3)cc21` (stereo partly drawn) [Example 227, 1-(6-(1-((1-(3-(((1R,5S)-3-((5-chloropyrimidin-2-yl)amino)-8-azabicyclo[3.2.1]octan-8-yl)sulfonyl)phenyl)piperidin-4-yl)methyl)piperidin-4-yl)-1-methyl-1H-indazol-3-yl)dihydropyrimidine-2,4(1H,3H)-dione] was 500 to 2500 nM; that for `Cn1nc(N2CCC(=O)NC2=O)c2cnc(C3CCN(CC4CCN(c5cccc(S(=O)(=O)N6CCC(Nc7ncc(Cl)cn7)CC6)c5)CC4)CC3)cc21` [Example 228, 1-(6-(1-((1-(3-((4-((5-chloropyrimidin-2-yl)amino)piperidin-1-yl)sulfonyl)phenyl)piperidin-4-yl)methyl)piperidin-4-yl)-1-methyl-1H-pyrazolo[4,3-c]pyridin-3-yl)dihydropyrimidine-2,4(1H,3H)-dione] was 100 to 500 nM.
Regarding `Cn1nc(N2CCC(=O)NC2=O)c2ccc(C#CCN3CCN(c4cccc(S(=O)(=O)N5CCC(Nc6ncc(C(F)(F)F)cn6)CC5)c4)CC3)cc21` [Example 230, 1-(1-methyl-6-(3-(4-(3-((4-((5-(trifluoromethyl)pyrimidin-2-yl)amino)piperidin-1-yl)sulfonyl)phenyl)piperazin-1-yl)prop-1-yn-1-yl)-1H-indazol-3-yl)dihydropyrimidine-2,4(1H,3H)-dione], the IC50 is 500 to 2500 nM.
The same measure for `Cn1nc(N2CCC(=O)NC2=O)c2ccc(C#CCN3CCN(c4cccc(S(=O)(=O)N5CCC(Nc6ncc(Cl)cn6)CC5)c4)CC3)cc21` [Example 231, 1-(6-(3-(4-(3-((4-((5-chloropyrimidin-2-yl)amino)piperidin-1-yl)sulfonyl)phenyl)piperazin-1-yl)prop-1-yn-1-yl)-1-methyl-1H-indazol-3-yl)dihydropyrimidine-2,4(1H,3H)-dione]: 500 to 2500 nM.
The value for `Cn1nc(N2CCC(=O)NC2=O)c2ccc(C3CCN(Cc4ccc(C#Cc5cccc(S(=O)(=O)N6CCC(Nc7ncc(C(F)(F)F)cn7)CC6)c5)cc4)CC3)cc21` [Example 232, 1-(1-methyl-6-(1-(4-((3-((4-((5-(trifluoromethyl)pyrimidin-2-yl)amino)piperidin-1-yl)sulfonyl)phenyl)ethynyl)benzyl)piperidin-4-yl)-1H-indazol-3-yl)dihydropyrimidine-2,4(1H,3H)-dione] was 100 to 500 nM; that for `Cn1nc(N2CCC(=O)NC2=O)c2ccc(C3CCN(Cc4cccc(C#Cc5cccc(S(=O)(=O)N6CCC(Nc7ncc(C(F)(F)F)cn7)CC6)c5)c4)CC3)cc21` [Example 233] was 100 to 500 nM; that for `Cn1nc(N2CCC(=O)NC2=O)c2ccc(CCCN3CCN(c4cccc(S(=O)(=O)N5CCC(Nc6ncc(C(F)(F)F)cn6)CC5)c4)CC3)cc21` [Example 235, 1-(1-methyl-6-(3-(4-(3-((4-((5-(trifluoromethyl)pyrimidin-2-yl)amino)piperidin-1-yl)sulfonyl)phenyl)piperazin-1-yl)propyl)-1H-indazol-3-yl)dihydropyrimidine-2,4(1H,3H)-dione] was 100 to 500 nM.
